Values quoted from earlier work, collected in US10682361B2, “Sustained release bimatoprost, bimatoprost analogs, prostamides and prostaglandins for fat reduction” (ALLERGAN, INC., priority 2013, dated 2020).

Legend:
adipocytes = details: topical administration
fat = details: topical administration

Compound: CCNC(=O)CCC/C=C\C[C@@H]1[C@@H](/C=C/[C@@H](O)CCc2ccccc2)[C@H](O)C[C@@H]1O [bimatoprost]
- effect on adipocytes in animal models (adipocytes): effectively prevent apidocyte formation and maturation and to atrophy adipocytes
- clinical fat reduction (fat): clinical evidence of fat reduction
